The target of this assay is human c-MER catalytic domain (Homo sapiens (Human), UniProt Q12866). The assay can be described thus: TR-FRET Kinase Activity Biochemical Assay (LanthaScreen). Particulars: 10 uM ATP, 1 hour, kinase not given. From the text:
For the SAR (structure-activity relationship) and compound screening, LanthaScreen™ TR-FRET (Time-Resolved fluorescence energy transfer) assay was employed using the phospho-tyrosine specific Terbium (Tb)-labelded antibody with a fluorescein labeled poly-GT (glutamate-tyrosine) as a substrate. Upon excitation at 340 nm by UV, the energy from Tb donor of the antibody is transferred to the fluorescein of the phosphorylated poly GT substrate, and fluorescein emits light at 520 nm. The ratio between the intensity of […] was used to quantify the level of kinase activity. The recombinant proteins of human c-MER and AXL catalytic domains, Fluorescein-labeled poly-GT substrate, Tb-labeled anti-phosphorylated tyrosine antibodies, the kinase assay buffer, and 0.5M EDTA solution were purchased (Life technologies, USA). The TR-FRET assays were carried out in the white low volume 384-well plate (Corning, USA). […] 10 mM EDTA was added to terminate the enzyme reaction, and the level of phosphorylation of poly-GT substrate was determined following 30 min incubation with 2 nM Tb-labeled antibody. The fluorescence intensity was measured with Envision™ plate reader (PerkinElmer, USA).
(In general: In TR-FRET formats the signal depends on donor and acceptor labels being close together.)

As usually defined, the IC50 is the concentration needed to halve the response being measured. High values mean a need for much substance, low ones inhibition by little substance.

human c-MER catalytic domain, sequence (Q12866 587-858): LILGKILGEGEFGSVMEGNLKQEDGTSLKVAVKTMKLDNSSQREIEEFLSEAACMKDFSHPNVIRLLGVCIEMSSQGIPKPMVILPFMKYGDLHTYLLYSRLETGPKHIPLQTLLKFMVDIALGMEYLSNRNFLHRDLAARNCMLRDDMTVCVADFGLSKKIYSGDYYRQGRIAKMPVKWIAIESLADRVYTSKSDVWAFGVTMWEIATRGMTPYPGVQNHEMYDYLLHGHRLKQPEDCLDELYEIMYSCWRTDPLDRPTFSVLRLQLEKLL

For the molecule `CN1CCN(Cc2ccc(-c3cnc(N)c(C(=O)N[C@@H]4CCN(C(=O)Oc5ccccc5)C4)c3)cc2)CC1` [Example 118, phenyl (R)-3-(2-amino-5-(4-((4-methylpiperazin-1-yl)methyl)phenyl)nicotinamido)pyrrolidine-1-carboxylate], the IC50 is 100 to 1000 nM.

On to `Cn1cc(-c2cnc(N)c(C(=O)N[C@@H]3CCN(C(=O)O[C@H]4CCC[C@@H]4OCc4ccccc4)C3)c2)cn1` [Example 120, (1S,2S)-2-(benzyloxy)cyclopentyl (R)-3-(2-amino-5-(1-methyl-1H-pyrazol-4-yl)nicotinamido)pyrrolidine-1-carboxylate], for which the IC50 is above 1000 nM.

The molecule `Cn1cc(-c2cnc(N)c(C(=O)N[C@@H]3CCN(C(=O)OC4CCC(c5ccccc5)C4)C3)c2)cn1` (stereo partly drawn) [Example 121, 3-phenylcyclopentyl (3R)-3-(2-amino-5-(1-methyl-1H-pyrazol-4-yl)nicotinamido)pyrrolidine-1-carboxylate] had an IC50 of 100 to 1000 nM.

For `Cn1cc(-c2cnc(N)c(C(=O)N[C@@H]3CCN(C(=O)OC4CCCN(c5ccc(C=O)cc5)C4)C3)c2)cn1` (stereo partly drawn) [Example 123, 1-(4-formylphenyl)piperidin-3-yl (3R)-3-(2-amino-5-(1-methyl-1H-pyrazol-4-yl)nicotinamido)pyrrolidine-1-carboxylate], the IC50 was above 1000 nM.

The molecule `Cn1cc(-c2cnc(N)c(C(=O)N[C@@H]3CCN(C(=O)OC4CCN(c5ccccc5)C4)C3)c2)cn1` (stereo partly drawn) [Example 126, 1-phenylpyrrolidin-3-yl (3R)-3-(2-amino-5-(1-methyl-1H-pyrazol-4-yl)nicotinamido)pyrrolidine-1-carboxylate] returned a half-maximal inhibitory concentration (IC50) above 1000 nM.

For the molecule `Cn1cc(-c2cnc(N)c(C(=O)N[C@@H]3CCN(C(=O)O[C@@H]4CCN(c5ccccc5)C4)C3)c2)cn1` [Example 127, (R)-1-phenylpyrrolidin-3-yl (R)-3-(2-amino-5-(1-methyl-1H-pyrazol-4-yl)nicotinamido)pyrrolidine-1-carboxylate], the half-maximal inhibitory concentration (IC50) was above 1000 nM.

Molecule `Cn1cc(-c2cnc(N)c(C(=O)N[C@@H]3CCN(C(=O)O[C@H]4CCN(c5ccccc5)C4)C3)c2)cn1` [Example 128, (S)-1-phenylpyrrolidin-3-yl (R)-3-(2-amino-5-(1-methyl-1H-pyrazol-4-yl)nicotinamido)pyrrolidine-1-carboxylate] yielded an IC50 of 100 to 1000 nM.

For `Cc1ccc(N2CC[C@@H](NC(=O)c3cc(-c4cnn(C)c4)cnc3N)C2)cc1` [Example 134, (R)-2-amino-5-(1-methyl-1H-pyrazol-4-yl)-N-(1-(p-tolyl)pyrrolidin-3-yl)nicotinamide], the IC50 was above 1000 nM.

The molecule `Cn1cc(-c2cnc(N)c(C(=O)N[C@@H]3CCN(c4ncc([N+](=O)[O-])s4)C3)c2)cn1` [Example 138, (R)-2-amino-5-(1-methyl-1H-pyrazol-4-yl)-N-(1-(5-nitrothiazol-2-yl)pyrrolidin-3-yl)nicotinamide] showed an IC50 above 1000 nM.

Consider `CC(c1ccccc1Cl)N1CC[C@@H](NC(=O)c2cc(-c3cnn(C4CCNCC4)c3)cnc2N)C1` (stereo partly drawn) [Example 148, 2-amino-N-((3R)-1-(1-(2-chlorophenyl)ethyl)pyrrolidin-3-yl)-5-(1-(piperidin-4-yl)-1H-pyrazol-4-yl)nicotinamide], for which the IC50 lay in the range of 10 to 100 nM.

With `CC(c1cccc(Cl)c1)N1CC[C@@H](NC(=O)c2cc(-c3cnn(C4CCNCC4)c3)cnc2N)C1` (stereo partly drawn) [Example 149, 2-amino-N-((3R)-1-(1-(3-chlorophenyl)ethyl)pyrrolidin-3-yl)-5-(1-(piperidin-4-yl)-1H-pyrazol-4-yl)nicotinamide], the IC50 was in the range of 100 to 1000 nM.

The molecule `COc1ccccc1CN1CC[C@@H](NC(=O)c2cc(-c3cnn(C4CCNCC4)c3)cnc2N)C1` [Example 167, (R)-2-amino-N-(1-(2-methoxybenzyl)pyrrolidin-3-yl)-5-(1-(piperidin-4-yl)-1H-pyrazol-4-yl)nicotinamide] showed an IC50 of 100 to 1000 nM.

In turn, `Cn1cc(-c2cnc(N)c(C(=O)N[C@@H]3CCN(CC(=O)c4ccccc4)C3)c2)cn1` [Example 215, (R)-2-amino-5-(1-methyl-1H-pyrazol-4-yl)-N-(1-(2-oxo-2-phenylethyl)pyrrolidin-3-yl)nicotinamide] registered a half-maximal inhibitory concentration (IC50) above 1000 nM.

As for `COc1cccc(CN2CC[C@@H](NC(=O)c3cc(-c4cnn(C)c4)cnc3N)C2)c1OC` [Example 217, (R)-2-amino-N-(1-(2,3-dimethoxybenzyl)pyrrolidin-3-yl)-5-(1-methyl-1H-pyrazol-4-yl)nicotinamide], the IC50 was 100 to 1000 nM.

As for `Cn1cc(-c2cnc(N)c(C(=O)N[C@@H]3CCN(Cc4cccc(Oc5ccccc5)c4)C3)c2)cn1` [Example 221, (R)-2-amino-5-(1-methyl-1H-pyrazol-4-yl)-N-(1-(3-phenoxybenzyl)pyrrolidin-3-yl)nicotinamide], the IC50 was above 1000 nM.

With `Cn1cc(-c2cnc(N)c(C(=O)N[C@@H]3CCN(Cc4cccc(OCc5ccccc5)c4)C3)c2)cn1` [Example 222, (R)-2-amino-N-(1-(3-(benzyloxy)benzyl)pyrrolidin-3-yl)-5-(1-methyl-1H-pyrazol-4-yl)nicotinamide], the IC50 was in the range of 100 to 1000 nM.

Consider `Cn1cc(-c2cnc(N)c(C(=O)N[C@@H]3CCN(Cc4cc(Cl)cc(Cl)c4O)C3)c2)cn1` [Example 223, (R)-2-amino-N-(1-(3,5-dichloro-2-hydroxybenzyl)pyrrolidin-3-yl)-5-(1-methyl-1H-pyrazol-4-yl)nicotinamide], for which the IC50 lay within 100 to 1000 nM.

As to `Cn1cc(-c2cnc(N)c(C(=O)N[C@@H]3CCN(CCc4cccc(Br)c4)C3)c2)cn1` [Example 234, (R)-2-amino-N-(1-(3-bromophenethyl)pyrrolidin-3-yl)-5-(1-methyl-1H-pyrazol-4-yl)nicotinamide], the IC50 was in the range of 100 to 1000 nM.

In turn, `Nc1ncc(-c2ccc(C(=O)N3CCOCC3)cc2)cc1C(=O)N[C@@H]1CCN(Cc2ccc(Cl)cc2)C1` [Example 235, (R)-2-amino-N-(1-(4-chlorobenzyl)pyrrolidin-3-yl)-5-(4-(morpholine-4-carbonyl)phenyl)nicotinamide] came in with an IC50 of 100 to 1000 nM.

Molecule `CN1CCN(Cc2ccc(-c3cnc(N)c(C(=O)N[C@@H]4CCN(Cc5ccc(Cl)cc5)C4)c3)cc2)CC1` [Example 236, (R)-2-amino-N-(1-(4-chlorobenzyl)pyrrolidin-3-yl)-5-(4-((4-methylpiperazin-1-yl)methyl)phenyl)nicotinamide] showed an IC50 of 100 to 1000 nM.

`N#Cc1ccc(-c2cnc(N)c(C(=O)N[C@@H]3CCN(Cc4ccc(Cl)cc4)C3)c2)cc1` [Example 238, (R)-2-amino-N-(1-(4-chlorobenzyl)pyrrolidin-3-yl)-5-(4-cyanophenyl)nicotinamide] displayed an IC50 above 1000 nM.

`CC(=O)N1CCC(n2cc(-c3cnc(N)c(C(=O)N[C@@H]4CCN(Cc5ccccc5)C4)c3)cn2)CC1` [Example 240, (R)-5-(1-(1-acetylpiperidin-4-yl)-1H-pyrazol-4-yl)-2-amino-N-(1-benzylpyrrolidin-3-yl)nicotinamide] returned an IC50 of 100 to 1000 nM.

On to `Cn1cc(-c2cnc(N)c(C(=O)N[C@@H]3CCN(Cc4ccccc4-c4cccc(CO)c4)C3)c2)cn1` [Example 247, (R)-2-amino-N-(1-((3′-(hydroxymethyl)-[1,1′-biphenyl]-2-yl)methyl)pyrrolidin-3-yl)-5-(1-methyl-1H-pyrazol-4-yl)nicotinamide], for which the IC50 fell in the range of 100 to 1000 nM.

In turn, `Cn1cc(-c2cnc(N)c(C(=O)N[C@@H]3CCN(Cc4ccccc4-c4ccc(CO)cc4)C3)c2)cn1` [Example 248, (R)-2-amino-N-(1-((4′-(hydroxymethyl)-[1,1′-biphenyl]-2-yl)methyl)pyrrolidin-3-yl)-5-(1-methyl-1H-pyrazol-4-yl)nicotinamide] came in with an IC50 of 100 to 1000 nM.

The molecule `Cn1cc(-c2cnc(N)c(C(=O)N[C@@H]3CCN(Cc4ccc(F)c(-c5ccccc5)c4)C3)c2)cn1` [Example 249, (R)-2-amino-N-(1-((6-fluoro-[1,1′-biphenyl]-3-yl)methyl)pyrrolidin-3-yl)-5-(1-methyl-1H-pyrazol-4-yl)nicotinamide] showed an IC50 of 100 to 1000 nM.

With `Cn1cc(-c2cnc(N)c(C(=O)N[C@@H]3CCN(Cc4ccc(F)c(C5=CCNCC5)c4)C3)c2)cn1` [Example 252, (R)-2-amino-N-(1-(4-fluoro-3-(1,2,3,6-tetrahydropyridin-4-yl)benzyl)pyrrolidin-3-yl)-5-(1-methyl-1H-pyrazol-4-yl)nicotinamide], the IC50 is above 1000 nM.

`CN1CCN(Cc2ccc(-c3cccc(CCN4CC[C@@H](NC(=O)c5cc(-c6cnn(C)c6)cnc5N)C4)c3)cc2)CC1` [Example 253, (R)-2-amino-5-(1-methyl-1H-pyrazol-4-yl)-N-(1-(2-(4′-((4-methylpiperazin-1-yl)methyl)-[1,1′-biphenyl]-3-yl)ethyl)pyrrolidin-3-yl)nicotinamide] yielded an IC50 above 1000 nM.

`CN(C)Cc1ccc(-c2cccc(NC(=O)N3CC[C@@H](NC(=O)c4cc(-c5cnn(C)c5)cnc4N)C3)c2)cc1` [Example 266, (R)-2-amino-N-(1-((4′-((dimethylamino)methyl)-[1,1′-biphenyl]-3-yl)carbamoyl)pyrrolidin-3-yl)-5-(1-methyl-1H-pyrazol-4-yl)nicotinamide] had an IC50 of 10 to 100 nM.

For the molecule `Cn1cc(-c2cnc(N)c(C(=O)N[C@@H]3CCN(C(=O)Nc4ccc(-c5cccc(CN)c5)cc4)C3)c2)cn1` [Example 269, (R)-2-amino-N-(1-((3′-(aminomethyl)-[1,1′-biphenyl]-4-yl)carbamoyl)pyrrolidin-3-yl)-5-(1-methyl-1H-pyrazol-4-yl)nicotinamide], the IC50 was 10 to 100 nM.

These data come from patent publication US12378224B2 (Dong-A Socio Holdings Co., Ltd., priority 2016, dated 2025).
